Measurements reported in article PMC8856561, “Pharmacological and genetic activation of cAMP synthesis disrupts cholesterol utilization in Mycobacterium tuberculosis” (PLoS Pathogens, 2022).

What was measured:
[1] = test system: Mtb; experiment: microbe, parasite or virus in culture; format: cell-based, Mycobacterium tuberculosis; settings: for inhibition of ΔRv1625c mutant: ΔRv1625c strain, cholesterol media
[2] = molecular target: Rv1625c (Mycobacterium tuberculosis, UniProt P9WQ35); experiment: cAMP production in cya- E. coli expressing Rv1625c; format: cell-based; settings: cya- E. coli with Rv1625c expression plasmid, 18 hours
Sequence of Rv1625c (P9WQ35 whole entry, looked up): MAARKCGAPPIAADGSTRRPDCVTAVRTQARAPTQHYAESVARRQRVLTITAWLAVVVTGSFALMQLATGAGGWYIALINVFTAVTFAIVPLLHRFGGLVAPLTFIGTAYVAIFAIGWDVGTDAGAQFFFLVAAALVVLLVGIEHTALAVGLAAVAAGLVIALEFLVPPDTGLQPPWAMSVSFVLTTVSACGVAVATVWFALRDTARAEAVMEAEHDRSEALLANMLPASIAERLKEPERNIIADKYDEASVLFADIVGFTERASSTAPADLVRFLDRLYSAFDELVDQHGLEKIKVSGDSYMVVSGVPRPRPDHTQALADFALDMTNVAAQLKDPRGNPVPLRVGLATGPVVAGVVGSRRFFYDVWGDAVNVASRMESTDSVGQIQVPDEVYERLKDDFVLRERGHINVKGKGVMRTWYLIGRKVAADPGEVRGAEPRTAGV

Cn1ncnc1CC(=O)N1CCC(c2nc(-c3ccc(Cl)c(Cl)c3)no2)CC1 [mCLB073, 1-(4-(3-(3,4-dichlorophenyl)-1,2,4-oxadiazol-5-yl)-1-piperidinyl)-2-(2-methyl-2H-1,2,4-triazol-3-yl)-1-ethanone]
inhibition of ΔRv1625c mutant [1]: refractory

Cc1nonc1CC(=O)N1CCC(n2nnc(-c3ccc(F)cc3)n2)CC1 [V-59, 1-(4-(5-(4-fluorophenyl)-2H-tetrazol-2-yl)piperidin-1-yl)-2-(4-methyl-1,2,5-oxadiazol-3-yl)ethan-1-one]
susceptibility of 2xrv1625c (rv1625c overexpression) strain relative to WT ([1]; 7H12+cholesterol media): ~ 15 fold
inhibition of ΔRv1625c mutant [1]: refractory
cAMP levels [2]: increased cAMP levels
